Inhibition data for 1 compound are collected here from paper PMC6934184, “Selective DNA-PKcs inhibition extends the therapeutic index of localized radiotherapy and chemotherapy” (The Journal of Clinical Investigation, 2019).

The structures appear in SMILES notation.

The assay concerns the target T1, ABL1 E255K (Homo sapiens, UniProt P00519, E255K).
T1 construct: purchased Thermo Fisher Scientific (Life Technologies) SelectScreen
As to the kind of experiment: SelectScreen Z'LYTE. The format is biochemical. The procedure, abridged: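 Percent values come from Thermo SelectScreen profiling of NU5455, combining activity and binding assays. CSF1R was run in Z'LYTE format at Km app ATP, and CAMK1 in Adapta format with ATP listed at 10.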

T1 sequence (P00519 whole entry E255K): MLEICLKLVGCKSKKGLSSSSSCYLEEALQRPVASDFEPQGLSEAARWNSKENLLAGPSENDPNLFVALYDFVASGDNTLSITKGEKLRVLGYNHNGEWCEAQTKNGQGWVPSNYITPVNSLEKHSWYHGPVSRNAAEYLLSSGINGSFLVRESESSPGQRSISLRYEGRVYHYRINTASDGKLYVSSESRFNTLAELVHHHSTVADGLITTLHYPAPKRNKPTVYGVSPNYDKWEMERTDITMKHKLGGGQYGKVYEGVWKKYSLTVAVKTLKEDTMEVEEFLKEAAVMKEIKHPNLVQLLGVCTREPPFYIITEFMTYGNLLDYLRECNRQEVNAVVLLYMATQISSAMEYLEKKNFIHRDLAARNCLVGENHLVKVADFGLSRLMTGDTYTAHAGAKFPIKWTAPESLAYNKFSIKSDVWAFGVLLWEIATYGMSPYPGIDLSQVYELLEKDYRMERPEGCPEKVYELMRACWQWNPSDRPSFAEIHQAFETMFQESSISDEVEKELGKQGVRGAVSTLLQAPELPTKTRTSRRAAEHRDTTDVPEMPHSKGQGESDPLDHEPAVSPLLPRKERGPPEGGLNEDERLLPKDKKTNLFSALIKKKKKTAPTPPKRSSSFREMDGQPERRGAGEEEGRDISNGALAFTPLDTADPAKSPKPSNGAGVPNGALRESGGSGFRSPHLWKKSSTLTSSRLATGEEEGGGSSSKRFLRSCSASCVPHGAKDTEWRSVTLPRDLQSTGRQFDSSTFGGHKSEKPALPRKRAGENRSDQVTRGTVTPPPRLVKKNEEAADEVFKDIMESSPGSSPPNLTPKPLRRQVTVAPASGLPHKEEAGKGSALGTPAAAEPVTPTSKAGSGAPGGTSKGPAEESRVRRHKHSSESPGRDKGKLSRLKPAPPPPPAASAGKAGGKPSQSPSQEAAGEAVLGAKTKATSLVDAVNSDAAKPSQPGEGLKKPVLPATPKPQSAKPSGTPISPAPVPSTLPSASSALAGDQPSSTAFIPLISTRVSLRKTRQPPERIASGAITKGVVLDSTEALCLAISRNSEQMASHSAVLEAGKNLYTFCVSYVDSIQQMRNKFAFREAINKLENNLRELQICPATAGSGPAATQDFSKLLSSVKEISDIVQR

`CN(C(=O)CN1CCOCC1)c1ccc2sc3c(-c4cccc5c(=O)cc(N6CC7CCC(C6)O7)oc45)cccc3c2c1` [NU5455]: the inhibition at 1 µM is -6.6%.

One may read the inhibition as the drop in the measured response relative to a control, in per cent.
